Results as given in PubChem BioAssay (NCI).
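These data come from cells grown in 96-well plates and exposed to compound for 48 hours at five concentrations. GI50: concentration for 50% inhibition of growth. Definition used: TGI = concentration required for complete inhibition of growth.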

Columns and labels:
Experiment in all cases: NCI anticancer screen, dose series, 48 h
UO-31 renal = system: UO-31 renal
OVCAR-4 ovarian = system: OVCAR-4 ovarian
OVCAR-5 ovarian = system: OVCAR-5 ovarian
HCT-15 colon = system: HCT-15 colon
SNB-19 CNS = system: SNB-19 CNS
MOLT-4 leukemia = system: MOLT-4 leukemia
SF-295 CNS = system: SF-295 CNS
HCC-2998 colon = system: HCC-2998 colon
HL-60(TB) leukemia = system: HL-60(TB) leukemia
T-47D breast = system: T-47D breast

| Compound | TGI (UO-31 renal) [µM] | TGI (OVCAR-4 ovarian) [µM] | TGI (OVCAR-5 ovarian) [µM] | TGI (HCT-15 colon) [µM] | TGI (SNB-19 CNS) [µM] | TGI (MOLT-4 leukemia) [µM] | TGI (SF-295 CNS) [µM] | TGI (HCC-2998 colon) [µM] | TGI (HL-60(TB) leukemia) [µM] | GI50 (UO-31 renal) [µM] | GI50 (HCT-15 colon) [µM] | GI50 (MOLT-4 leukemia) [µM] | GI50 (SF-295 CNS) [µM] | GI50 (HL-60(TB) leukemia) [µM] | GI50 (HCC-2998 colon) [µM] | GI50 (OVCAR-4 ovarian) [µM] | GI50 (OVCAR-5 ovarian) [µM] | GI50 (SNB-19 CNS) [µM] | GI50 (T-47D breast) [µM] | TGI (T-47D breast) [µM] |
| --- | --- | --- | --- | --- | --- | --- | --- | --- | --- | --- | --- | --- | --- | --- | --- | --- | --- | --- | --- | --- |
| C[Si](C)(C)[C@@]1([Se]c2ccccc2)CC[C@@H]1C(=O)c1ccccc1 | > 100 | > 100 | > 100 | > 100 | > 100 | 75.1 | > 100 | > 100 | – | – | – | – | – | – | – | – | – | – | – | – |
| c1ccc(CN(Cc2ccccn2)Cn2cccn2)nc1 | > 100 | > 100 | – | 78.9 | > 100 | > 100 | > 100 | – | 55.8 | – | – | – | – | – | – | – | – | – | – | – |
| COc1cc(C(N)=O)c(OC)c(OC)c1OC | > 100 | > 100 | > 100 | > 100 | > 100 | > 100 | > 100 | > 100 | > 100 | – | – | – | – | – | – | – | – | – | – | – |
| OCC1CC2CC1C1(C2)OCCO1 (centres undefined) | > 100 | > 100 | > 100 | – | > 100 | > 100 | > 100 | – | > 100 | – | – | – | – | – | – | – | – | – | – | – |
| N#CC(/C(=N\NC(N)=S)C(=O)NC1C2CC3CC(C2)CC1C3)c1ccc(Cl)cc1 (centres undefined) | > 100 | > 100 | > 100 | > 100 | > 100 | > 100 | > 100 | > 100 | > 100 | – | – | – | – | – | – | – | – | – | – | – |
| CC1=CC(=O)c2[nH]c3ccccc3c2C1=O | 7.4 | 7.58 | 12.2 | 7.61 | > 25 | 15.9 | 7.93 | 24 | 9.85 | 4 | 4.2 | 5.36 | 4.32 | 4.06 | 7.01 | – | – | – | – | – |
| O=C1CCCc2c(O)ccc(O)c21 | > 100 | > 100 | > 100 | > 100 | > 100 | > 100 | > 100 | > 100 | 53.5 | – | – | – | – | – | – | – | – | – | – | – |
| Nc1nc(Cl)cc(NCCCCCCCCCCNc2cc(Cl)nc(N)n2)n1 | > 100 | > 100 | > 100 | > 100 | > 100 | – | 46.4 | > 100 | 34.6 | – | – | – | – | – | – | – | – | – | – | – |
| COc1ccc2c(c1)[n+]([O-])c(-c1ccc(Cl)c(Cl)c1)c(N)[n+]2[O-] | > 100 | > 100 | > 100 | > 100 | > 100 | > 100 | > 100 | – | 61 | – | – | – | – | – | – | – | – | – | – | – |
| N#CCc1nc2c(s1)C(=O)c1ccccc1C2=O | 29.3 | 31.1 | 37.2 | 29.9 | 40.7 | 3.48 | 34.5 | 38 | – | – | – | – | – | – | – | – | – | – | – | – |
| NC(=O)Cn1c(=O)[nH]c(=O)c2[nH]cnc21 | > 100 | – | > 100 | > 100 | > 100 | > 100 | – | > 100 | > 100 | – | – | – | – | – | – | – | – | – | – | – |
| NC(=NC1C2CC3CC(C2)CC1C3)Nc1ccc(I)cc1 (centres undefined) | 12.8 | 14 | 21.7 | 10.2 | 16.6 | 8.79 | 6.75 | 3.61 | 27.2 | 2.67 | 2.88 | 2.22 | 2.51 | 6.43 | 1.77 | 3.26 | 4.5 | 4.35 | – | – |
| OCC(O)C(OC1OC(CO)C(O)C(O)C1O)c1nn(-c2ccc(F)cc2)c2nc3cc(Cl)c(Cl)cc3cc12 (centres undefined) | > 100 | > 100 | > 100 | > 100 | > 100 | > 100 | > 100 | > 100 | – | – | – | – | – | – | – | – | – | – | – | – |
| NC(=O)c1ccc(NC(=O)c2oc3ccccc3c2-c2cnn(-c3ccccc3)c2)cc1 | > 100 | – | > 100 | – | > 100 | > 100 | > 100 | > 100 | > 100 | > 100 | – | > 100 | > 35.5 | > 100 | > 100 | – | > 100 | 8.98 | – | – |
| O=C(O)C1C2CC3CC2CC31 (centres undefined) | > 100 | > 100 | > 100 | > 100 | > 100 | > 100 | > 100 | – | > 100 | – | – | – | – | – | – | – | – | – | – | – |
| C/C(=N\n1c(N)c(C#N)c(-c2ccc(Cl)cc2)c(C#N)c1=O)c1cccnc1 | > 100 | > 100 | > 100 | > 100 | > 100 | > 100 | > 100 | > 100 | – | > 100 | > 100 | > 100 | > 100 | – | > 100 | > 100 | > 100 | > 100 | > 100 | > 100 |
| CN(C)/C(=N/C(=O)Nc1ccccc1)SCc1ccccc1 | > 100 | > 100 | > 100 | > 100 | > 100 | > 100 | > 100 | > 100 | > 100 | – | – | – | – | – | – | – | – | – | – | – |
| Cc1ccc(C)c(NC(=O)CCc2n[nH]c(=S)o2)c1 | > 100 | > 100 | > 100 | > 100 | > 100 | > 100 | > 100 | > 100 | > 100 | – | – | – | – | – | – | – | – | – | – | – |
| COc1ccc(C2CC(C)=Nc3c([nH]c(=S)[nH]c3=O)N2)cc1 (centres undefined) | 32.8 | – | 56.7 | 33 | 37.5 | 67.4 | 48.5 | 30.3 | 40.1 | – | – | – | – | – | – | – | – | – | – | – |
| C=C(C)[C@@H]1CC[C@]2(C#N)CC[C@]3(C)[C@H](CC[C@@H]4[C@@]5(C)CCCNC(C)(C)[C@@H]5CC[C@]43C)[C@@H]12 | 7.92 | 4.44 | 7.15 | 3.05 | 4.69 | 5.57 | 3.1 | 3.24 | – | 2.41 | 1.61 | 2.14 | 1.7 | – | 1.8 | 2.16 | 2.72 | 2.29 | 1.76 | 4.05 |
| O=C1CCCC2COc3ccc(O)c1c32 (centres undefined) | > 100 | > 100 | > 100 | > 100 | > 100 | > 100 | > 100 | > 100 | > 100 | – | – | – | – | – | – | – | – | – | – | – |
